We go through two compounds from ChEMBL document CHEMBL4806966, “Methods for treating centronuclear myopathy” (2020).

Assay [1] has as its target Phosphatidylinositol 4,5-bisphosphate 3-kinase catalytic subunit beta isoform (Homo sapiens, UniProt P42338). In words: Inhibition of PI3Kbeta (unknown origin).
For assay [2], the species on record is Homo sapiens. In words: Selectivity index, ratio of IC50 for human PIK3C2B to IC50 for PI3Kbeta (unknown origin).
Assay [3] addresses T1, Phosphatidylinositol 4-phosphate 3-kinase C2 domain-containing subunit alpha (Homo sapiens, UniProt O00443). Description: Inhibition of human PIK3C2A using phosphatidylinositol as substrate and 10 uM ATP after 1 hr by TR-FRET based Adapta universal kinase assay. A general note: In TR-FRET formats the signal depends on donor and acceptor labels being close together.
The target of assay [4] is Phosphatidylinositol 4-phosphate 3-kinase C2 domain-containing subunit beta (Homo sapiens) (UniProt O00750). Description: Inhibition of human PIK3C2B using phosphatidylinositol as substrate at 111 nM after 1 hr by TR-FRET based Adapta universal kinase assay.
Chain of Phosphatidylinositol 4-phosphate 3-kinase C2 domain-containing subunit beta (Homo sapiens) (O00750 whole entry, the tested form may be a part): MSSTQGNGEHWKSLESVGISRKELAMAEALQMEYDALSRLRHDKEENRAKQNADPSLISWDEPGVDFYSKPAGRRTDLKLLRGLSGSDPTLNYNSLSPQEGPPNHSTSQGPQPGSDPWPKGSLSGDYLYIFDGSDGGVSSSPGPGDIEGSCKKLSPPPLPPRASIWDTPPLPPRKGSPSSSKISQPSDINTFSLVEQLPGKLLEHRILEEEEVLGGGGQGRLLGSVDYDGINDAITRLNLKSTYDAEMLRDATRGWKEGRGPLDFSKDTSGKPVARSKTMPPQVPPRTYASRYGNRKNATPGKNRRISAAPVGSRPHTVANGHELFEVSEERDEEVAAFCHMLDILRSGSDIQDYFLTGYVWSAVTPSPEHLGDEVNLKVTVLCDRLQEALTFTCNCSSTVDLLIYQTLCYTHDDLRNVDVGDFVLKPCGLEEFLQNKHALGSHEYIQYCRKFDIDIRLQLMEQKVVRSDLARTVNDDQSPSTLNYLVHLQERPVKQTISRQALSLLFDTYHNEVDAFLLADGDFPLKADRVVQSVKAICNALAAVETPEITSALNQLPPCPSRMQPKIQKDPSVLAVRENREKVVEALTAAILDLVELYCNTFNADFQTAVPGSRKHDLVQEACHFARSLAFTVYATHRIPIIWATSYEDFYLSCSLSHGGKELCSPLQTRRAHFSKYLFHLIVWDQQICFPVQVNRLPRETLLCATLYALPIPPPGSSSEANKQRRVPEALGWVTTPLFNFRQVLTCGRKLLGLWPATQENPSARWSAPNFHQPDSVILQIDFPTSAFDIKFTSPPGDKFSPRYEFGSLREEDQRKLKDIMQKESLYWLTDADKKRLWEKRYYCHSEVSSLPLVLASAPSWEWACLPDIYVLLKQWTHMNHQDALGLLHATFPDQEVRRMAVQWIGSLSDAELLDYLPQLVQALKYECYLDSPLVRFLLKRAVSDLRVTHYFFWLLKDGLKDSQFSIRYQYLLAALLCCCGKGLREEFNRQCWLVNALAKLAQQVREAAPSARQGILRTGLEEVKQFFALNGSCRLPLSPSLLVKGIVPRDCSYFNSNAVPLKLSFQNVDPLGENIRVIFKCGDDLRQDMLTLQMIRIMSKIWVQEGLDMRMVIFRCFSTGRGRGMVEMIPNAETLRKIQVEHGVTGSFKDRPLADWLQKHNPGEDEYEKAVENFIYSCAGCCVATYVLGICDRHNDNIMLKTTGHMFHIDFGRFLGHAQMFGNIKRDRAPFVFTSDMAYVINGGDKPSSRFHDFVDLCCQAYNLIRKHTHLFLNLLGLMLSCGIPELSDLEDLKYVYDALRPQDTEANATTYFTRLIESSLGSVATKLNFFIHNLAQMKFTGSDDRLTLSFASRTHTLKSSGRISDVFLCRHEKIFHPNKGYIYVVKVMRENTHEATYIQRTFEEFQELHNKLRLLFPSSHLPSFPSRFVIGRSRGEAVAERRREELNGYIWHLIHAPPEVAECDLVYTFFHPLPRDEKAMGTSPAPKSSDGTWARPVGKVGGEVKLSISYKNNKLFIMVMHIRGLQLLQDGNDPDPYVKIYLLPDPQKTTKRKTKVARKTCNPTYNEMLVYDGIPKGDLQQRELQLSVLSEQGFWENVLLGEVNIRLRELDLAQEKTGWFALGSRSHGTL
For assay [5], the target named is T1, Phosphatidylinositol 4-phosphate 3-kinase C2 domain-containing subunit alpha. Description: Inhibition of human PIK3C2A using phosphatidylinositol as substrate at 741 nM after 1 hr by TR-FRET based Adapta universal kinase assay relative to control.
The target is the same in assay [6]. In words: Inhibition of human PIK3C2A using phosphatidylinositol as substrate at 27.3 nM after 1 hr by TR-FRET based Adapta universal kinase assay relative to control.
The target is the same in assay [7]. In words: Inhibition of human PIK3C2A using phosphatidylinositol as substrate at 3.03 nM after 1 hr by TR-FRET based Adapta universal kinase assay relative to control.
For assay [8], the species on record is Homo sapiens. Description: Selectivity index, ratio of IC50 for human PIK3C2A to IC50 for human PIK3C2B.
For assay [9], the target named is T1, Phosphatidylinositol 4-phosphate 3-kinase C2 domain-containing subunit alpha. Description: Inhibition of human PIK3C2A using phosphatidylinositol as substrate at 6667 nM after 1 hr by TR-FRET based Adapta universal kinase assay relative to control.
Assay [10] shares this target. Description: Inhibition of human PIK3C2A using phosphatidylinositol as substrate at 20000 nM after 1 hr by TR-FRET based Adapta universal kinase assay relative to control.
Assay [11] shares this target. Description: Inhibition of human PIK3C2A using phosphatidylinositol as substrate at 247 nM after 1 hr by TR-FRET based Adapta universal kinase assay relative to control.
For assay [12], the target named is Phosphatidylinositol 4-phosphate 3-kinase C2 domain-containing subunit beta (Homo sapiens) (UniProt O00750). Description: Inhibition of human PIK3C2B using phosphatidylinositol as substrate at 4.1 nM after 1 hr by TR-FRET based Adapta universal kinase assay.
Assay [13] shares this target. Description: Inhibition of human PIK3C2B using phosphatidylinositol as substrate at 1000 nM after 1 hr by TR-FRET based Adapta universal kinase assay.
Assay [14] has the same target. Description: Inhibition of human PIK3C2B using phosphatidylinositol as substrate at 1.37 nM after 1 hr by TR-FRET based Adapta universal kinase assay.
In assay [15] the target is T1, Phosphatidylinositol 4-phosphate 3-kinase C2 domain-containing subunit alpha. In words: Inhibition of human PIK3C2A using phosphatidylinositol as substrate at 2222 nM after 1 hr by TR-FRET based Adapta universal kinase assay relative to control.
Assay [16] addresses Phosphatidylinositol 4-phosphate 3-kinase C2 domain-containing subunit beta (Homo sapiens) (UniProt O00750). In words: Inhibition of human PIK3C2B using phosphatidylinositol as substrate at 333 nM after 1 hr by TR-FRET based Adapta universal kinase assay.
Assay [17] has the same target. In words: Inhibition of human PIK3C2B using phosphatidylinositol as substrate at 0.051 nM after 1 hr by TR-FRET based Adapta universal kinase assay.
For assay [18], the target named is T1, Phosphatidylinositol 4-phosphate 3-kinase C2 domain-containing subunit alpha. Description: Inhibition of human PIK3C2A using phosphatidylinositol as substrate at 9.1 nM after 1 hr by TR-FRET based Adapta universal kinase assay relative to control.
Assay [19] deals with Phosphatidylinositol 4-phosphate 3-kinase C2 domain-containing subunit beta (Homo sapiens) (UniProt O00750). In words: Inhibition of human PIK3C2B using phosphatidylinositol as substrate at 0.153 nM after 1 hr by TR-FRET based Adapta universal kinase assay.
In assay [20] the target is T1, Phosphatidylinositol 4-phosphate 3-kinase C2 domain-containing subunit alpha. Description: Inhibition of human PIK3C2A using phosphatidylinositol as substrate at 82 nM after 1 hr by TR-FRET based Adapta universal kinase assay relative to control.
Assay [21] concerns the target Phosphatidylinositol 4-phosphate 3-kinase C2 domain-containing subunit beta (Homo sapiens) (UniProt O00750). In words: Inhibition of human PIK3C2B using phosphatidylinositol as substrate at 37 nM after 1 hr by TR-FRET based Adapta universal kinase assay.
Assay [22] shares this target. Description: Inhibition of human PIK3C2B using phosphatidylinositol as substrate at 12.3 nM after 1 hr by TR-FRET based Adapta universal kinase assay.
Assay [23] has the same target. Description: Inhibition of human PIK3C2B using phosphatidylinositol as substrate at 0.46 nM after 1 hr by TR-FRET based Adapta universal kinase assay.

T1 sequence (O00443 whole entry, the tested form may be a part): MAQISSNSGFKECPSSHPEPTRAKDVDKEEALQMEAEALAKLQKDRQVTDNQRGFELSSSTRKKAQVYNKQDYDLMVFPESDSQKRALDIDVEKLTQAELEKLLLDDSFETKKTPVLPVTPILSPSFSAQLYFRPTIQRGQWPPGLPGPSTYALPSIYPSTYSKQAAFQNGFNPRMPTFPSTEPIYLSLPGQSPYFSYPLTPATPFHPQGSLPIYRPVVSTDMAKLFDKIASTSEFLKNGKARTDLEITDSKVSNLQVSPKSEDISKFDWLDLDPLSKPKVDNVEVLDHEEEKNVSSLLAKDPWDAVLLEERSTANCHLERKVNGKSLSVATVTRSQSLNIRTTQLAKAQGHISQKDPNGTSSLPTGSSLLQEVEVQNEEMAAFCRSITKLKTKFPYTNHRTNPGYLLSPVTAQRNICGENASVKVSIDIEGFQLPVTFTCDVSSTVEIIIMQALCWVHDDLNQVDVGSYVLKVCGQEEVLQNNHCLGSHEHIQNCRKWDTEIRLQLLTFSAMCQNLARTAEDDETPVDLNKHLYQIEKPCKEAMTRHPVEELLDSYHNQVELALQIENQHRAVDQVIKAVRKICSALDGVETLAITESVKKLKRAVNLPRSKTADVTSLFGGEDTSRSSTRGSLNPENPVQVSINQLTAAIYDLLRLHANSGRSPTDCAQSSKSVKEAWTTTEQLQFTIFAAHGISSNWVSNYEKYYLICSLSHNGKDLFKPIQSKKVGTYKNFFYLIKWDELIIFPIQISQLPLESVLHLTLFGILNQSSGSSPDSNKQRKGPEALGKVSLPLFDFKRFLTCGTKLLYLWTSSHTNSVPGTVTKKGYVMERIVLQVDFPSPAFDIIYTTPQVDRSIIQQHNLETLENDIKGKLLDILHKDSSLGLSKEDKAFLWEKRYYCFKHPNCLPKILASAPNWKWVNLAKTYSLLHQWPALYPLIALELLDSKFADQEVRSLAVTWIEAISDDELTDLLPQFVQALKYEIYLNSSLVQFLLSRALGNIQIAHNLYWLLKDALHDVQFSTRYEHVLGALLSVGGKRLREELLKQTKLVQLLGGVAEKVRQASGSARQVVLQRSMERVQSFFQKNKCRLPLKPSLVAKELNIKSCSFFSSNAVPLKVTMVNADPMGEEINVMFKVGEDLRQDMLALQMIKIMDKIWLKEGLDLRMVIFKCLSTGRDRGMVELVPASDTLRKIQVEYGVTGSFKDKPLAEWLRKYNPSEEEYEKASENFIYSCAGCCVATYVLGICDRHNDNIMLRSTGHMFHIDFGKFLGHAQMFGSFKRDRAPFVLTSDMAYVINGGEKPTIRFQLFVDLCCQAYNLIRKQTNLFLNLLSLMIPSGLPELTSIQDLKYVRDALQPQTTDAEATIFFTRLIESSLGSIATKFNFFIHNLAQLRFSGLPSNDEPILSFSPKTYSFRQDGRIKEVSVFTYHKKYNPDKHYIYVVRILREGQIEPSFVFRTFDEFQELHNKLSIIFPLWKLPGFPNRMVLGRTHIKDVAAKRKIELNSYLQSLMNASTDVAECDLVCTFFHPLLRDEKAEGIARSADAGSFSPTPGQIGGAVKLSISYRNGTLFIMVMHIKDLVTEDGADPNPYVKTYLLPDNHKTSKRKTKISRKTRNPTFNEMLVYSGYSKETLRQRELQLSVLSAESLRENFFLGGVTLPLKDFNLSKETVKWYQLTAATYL
Chain of Phosphatidylinositol 4,5-bisphosphate 3-kinase catalytic subunit beta isoform (P42338 whole entry, canonical isoform): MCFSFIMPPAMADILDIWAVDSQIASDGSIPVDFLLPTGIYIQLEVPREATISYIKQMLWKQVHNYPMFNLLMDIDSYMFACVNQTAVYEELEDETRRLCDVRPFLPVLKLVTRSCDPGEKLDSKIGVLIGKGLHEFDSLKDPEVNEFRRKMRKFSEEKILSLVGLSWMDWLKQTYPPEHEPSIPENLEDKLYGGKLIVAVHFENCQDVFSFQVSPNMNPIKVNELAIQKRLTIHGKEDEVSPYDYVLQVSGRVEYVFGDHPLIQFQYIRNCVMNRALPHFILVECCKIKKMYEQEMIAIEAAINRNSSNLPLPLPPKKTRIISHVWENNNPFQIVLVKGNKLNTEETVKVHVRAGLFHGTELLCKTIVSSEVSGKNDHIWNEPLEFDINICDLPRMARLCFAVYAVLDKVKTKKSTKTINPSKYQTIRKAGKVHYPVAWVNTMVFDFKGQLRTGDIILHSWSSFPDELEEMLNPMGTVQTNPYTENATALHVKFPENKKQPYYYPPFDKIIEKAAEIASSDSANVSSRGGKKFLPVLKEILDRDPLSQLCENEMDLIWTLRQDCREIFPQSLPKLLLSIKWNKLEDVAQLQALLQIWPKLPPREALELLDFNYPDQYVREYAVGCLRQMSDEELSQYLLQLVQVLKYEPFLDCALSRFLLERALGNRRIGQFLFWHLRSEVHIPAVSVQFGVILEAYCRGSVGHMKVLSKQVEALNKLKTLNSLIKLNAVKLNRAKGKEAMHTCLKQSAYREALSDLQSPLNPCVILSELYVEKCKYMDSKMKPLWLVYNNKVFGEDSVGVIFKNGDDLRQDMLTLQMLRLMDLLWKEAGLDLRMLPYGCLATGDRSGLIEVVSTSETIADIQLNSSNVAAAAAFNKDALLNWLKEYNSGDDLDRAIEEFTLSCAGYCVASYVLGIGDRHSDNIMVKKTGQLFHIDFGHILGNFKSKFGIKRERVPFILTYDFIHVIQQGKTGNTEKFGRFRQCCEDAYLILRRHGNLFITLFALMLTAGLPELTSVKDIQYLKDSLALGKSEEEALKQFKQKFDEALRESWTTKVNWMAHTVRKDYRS

On to `Cc1c(Cn2c(C)nc(=O)c3sc(N4CCOCC4)nc32)cccc1C(F)(F)F`, for which inhibition in assay [1] was half-maximal at 0.016 µM (IC50). In addition, the Ratio IC50 in the assay filed under Homo sapiens [2] amounted to 6.
As for `CN(C)C(=O)c1ccc2c(c1)c(C[C@H]1COCCN1c1nc3c(s1)C(=O)NC(C)(C)C3)cn2C`, the IC50 (as a rule, the midpoint of a concentration-inhibition curve) in assay [3] turned out to be 9.57 µM. For the same compound, the inhibition (usually the change of the read-out against control, counted positive when it falls) in assay [4] is 90%; in [5], 17%; in assay [6] it was -4%; in assay [7], -3%; in [9], 46%; in assay [10] it was 78%. The inhibition in assay [11] was 6%; in [12], 27%; in assay [13], 93%; in assay [14], 21%; in [15] it was 36%; in assay [16], 93%. Further, the inhibition in assay [17] is 16%; in assay [18], -3%; in assay [19], -3%; in assay [20] it was 0%; in assay [21], 74%; in [22] it was 49%. Also, the inhibition in assay [23] is 10%. Moreover, the Ratio IC50 in the assay filed under Homo sapiens [8] was determined as 449.
